Results on three compounds are retold here after patent US10406162B2, “Substituted 2,3-dihydroimidazo[1,2-C]quinazoline-containing combinations” (BAYER PHARMA AKTIENGESELLSCHAFT, priority 2015, dated 2019).

In one data set the test system is RUCA. As to the kind of experiment: IC50 in endometrial cancer cell lines (untitled table). It is filed as cell-based. The settings on record: PTEN^del, ER+, Type I.
The test system of another data set is ECC-1. Described as above. It is filed as cell-based. The settings on record: Homo sapiens, PTEN^del, PIK3R1^mut, ER+, PR+, Type I.
The test system of another data set is Ishikawa. Described as above. It counts as cell-based. The settings on record: Homo sapiens, PTEN^del, PIK3R1^mut, ER+, PR+, Type I.
The test system of another data set is HEC-50. The data set is described as above. It counts as cell-based. The note with it: Hec50, PIK3R1^mut, KRAS^mut, Type II.
A further data set relates to RL95-2. The data set is described as above. It is filed as cell-based. The note with it: Homo sapiens, PIK3R1^mut/PTEN^del/NF2/BRCA2, Type II.
The test system of the next data set is KLE. Described as above. It is filed as cell-based. The settings on record: Homo sapiens, FBXW7^mut, Type II.
A further data set concerns HEC-1B. The data set is described as above. It counts as cell-based. The note with it: Homo sapiens, PIK3CA^mut, PIK3R2^mut, PTEN^Loss(protein) and KRAS^mut, Type II.
Another data set relates to AN3CA. The description is as above. It is filed as cell-based. The settings on record: Homo sapiens, AN3-CA, PTEN^del, FBXW7, FGFR2^N549K, K310R, Type II.
The subject of another data set is HEC-1A. Described as above. It counts as cell-based. The settings on record: Homo sapiens, PIK3CA^G1049R, PIK3R2^mut, KRAS^mut, Type II.
The next data set concerns MFE 280. The description is as above. It counts as cell-based. The settings on record: Homo sapiens, PIK3CA^G1047Y, RB^del, FGFR2^5252W, Type II.
The next data set concerns MFE 296. The data set is described as above. It is filed as cell-based. The settings on record: Homo sapiens, PTEN^del, FGFR2^N549K, UTX^del, Type II.
For a further data set, the system named is MFE-280 cells. Nature of the data set: 48-hour caspase 3/7 activation assay (apoptosis induction). The settings on record: single agent. It is filed as cell-based. The procedure:
(§1) In vitro combination assessment: The effects of combinations of the present invention were evaluated using combination index isobologram analysis for in vitro assessment. The efficacy parameters were the effects in a 48-hour caspase 3/7 activation assay. Briefly, cells were plated in 384-well plate with 25 μL medium. After 24 hours, 5 μL of experimental media containing: • either A alone, or • B alone, or • the combination of A (as component A) plus either B, (as component B), at different ratios (***) were used to make serial 3-fold dilutions to generate response curves with 7 concentrations. Experiments were conducted in triplicates. Caspase 3/7 assay was conducted at 48 hours after compound exposure.
FIG. 1: Synergistic combination of PI3K inhibitor compound A (Copanlisib) with FGFR inhibitor compound B in MFE-280 cells (PIK3CA^G1047Y, FGFR2^S252W). The combination of PI3K inhibitor compound A (copanlisib) and FGFR inhibitor compound B was tested and compared to the single agent activity in MFE 280 to address the activity in apoptosis induction using a cleaved caspase 3/7 assay. MFE 280 cells are bearing both activating PIK3CA and FGFR2 mutations.

Another data set deals with MFE-296 cells. The data set is described as above. It counts as cell-based. The note with it: single agent. The procedure:
as §1
FIG. 2: Synergistic combination of PI3K inhibitor compound A (Copanlisib) with FGFR inhibitor compound B in MFE-296 cells (PTEN^del, FGFR2^N549K). The combination of PI3K inhibitor compound A (copanlisib) and FGFR inhibitor compound B was tested and compared to the single agent activity in MFE 296 to address the activity in apoptosis induction using a cleaved caspase 3/7 assay. MFE 296 cells are bearing activating FGFR2 mutation and loss-of-PTEN.

Data set [1] has as its system MFE 280 xenograft tumor model. As to the kind of experiment: In vivo efficacy in tumor xenograft model. On the set-up: species or system nude mice. The settings on record: for T/C (tumor area) / T/C (tumor weight): study end. The procedure:
(§2) The in vivo efficacy was evaluated in tumor xenograft models in nude mice with established human tumor cell lines at the MTD and sub-MTD dosages. Tumor cells were cultivated according to ATCC protocols in recommended media contained 10% FCS. Cells were harvested for transplantation in a subconfluent (70%) state. The volume of implantation was 100 μl for mice. When the tumors were approximately in size of 25-50 mm^2, the animals were randomized to treatment and control groups and treatment was started. Treatment of each animal was based on individual body weight. The optimal formulation, application route and schedule were used for each compound (see table 2). Oral administration (p.o.) was carried out via a gastric tube. The oral application volumes were 10 ml/kg and the intravenous application volumes were 10 ml/kg. Tumor area (product of the longest diameter and its perpendicular) using a caliper. The animal body weight was monitored as a measure for treatment-related toxicity. Measurement of tumor area and body weight was performed 2-3 times weekly. T/C ratios (Treatment/Control) were calculated with final tumor areas. Treatment responses were evaluated by means of the clinically-used RECIST criteria (complete response, partial response, stable disease and progressive disease) and response rates were calculated accordingly (RR=number of animals with complete and partial response).
FIGS. 3A and 3B: Synergistic combination of PI3K inhibitor compound A (Copanlisib) with FGFR inhibitor compound B in MFE-280 xenograft tumor model. The combination of PI3K inhibitor compound A (copanlisib) and FGFR inhibitor compound B was tested and compared to the single agent activity and the SoC doxorubicin in MFE 280, an endometrial tumor model bearing both activating PIK3CA and FGFR2 mutations. At a tumor size of about 40 mm^2 the subcutaneously growing MFE-280 tumors were treated intravenously with two different doses of compound A (copanlisib), 14 (filled triangles)/10 (open triangles) mg/kg, and 7 mg/kg) and in combination of compound A and compound B. The dosing schedule for compound A is depicted in FIG. 3A with triangles. […] Doxorubicin was applied intravenously 1 time every 14 days as a SoC reference.

Data set [2] is described as follows: Body weight as a measure for treatment-related toxicity in MFE-280 xenograft study. The note with it: mouse, in vivo, 7 mg/kg. The procedure:
as §2, with “response). […]” for “response).”

A short description of data set [3]: Phase I dose escalation study, maximum tolerated dose. The settings on record: human, in vivo, iv; intravenously over 60 minutes on days 1, 8, 15 of every 28 day cycle. The procedure:
(§3) In a phase I dose escalation study, subjects were treated with Compound A (copanlisib) administered intravenously over 60 minutes on days 1, 8, and 15 of every 28 day cycle. Seventeen subjects were treated in 5 dose escalation cohorts (0.1, 0.2, 0.4, 0.8, and 1.2 mg/kg), and the maximum tolerated dose (MTD) was determined to be 0.8 mg/kg. Additional patients were enrolled into the study in 3 expansion cohorts treated at the MTD to assess safety, pharmacokinetics, biomarkers, and clinical benefit in selected patient populations, including solid tumors (n=25), non-Hodgkin lymphoma (NHL; n=9), and diabetic solid tumor patients (n=6; treated at 0.4 mg/kg).

The next data set deals with endometrial cancer. Nature of the data set: Phase I study, clinical outcomes in endometrial cancer patients. It is filed as in vivo, human. The procedure: as §3
PIK3CA, BRAF, and KRAS mutations were tested using digital PCR on archival tumor samples and cell free DNA isolated from plasma. Next generation sequencing (NGS) of a panel of tumor genes and immunohistochemistry (IHC) for PTEN protein were also performed on archival tumor samples. […] Of the 2 endometrial cancer patients with extended SD lasting more than 8 cycles, PTEN data could only be generated for 1 (patient #2117), and this tumor was also PTEN-negative by IHC (Table 4). The other endometrial cancer patient with extended SD (with 24.3% tumor shrinkage) harbored a KRAS tumor mutation (Table 4). […] Activation of PI3K pathway signaling via a number of mechanisms alone or in combination, such as PTEN loss and/or mutation, PIK3CA mutation, and/or KRAS mutation, may enrich Compound A (copanlisib) activity in this population.

The mark [4] stands for this setting: Compound A (14)10 mg/kg i.v. Q2D.
Setting [5] is: Pt 2004, 0.4 mg/kg (40 mg), stage IV.
Where [6] appears, read: Pt 2116, 0.8 mg/kg (59 mg), stage IV.
The mark [7] stands for this setting: Pt 2117, 0.8 mg/kg (51 mg), stage IIIC.
Where [8] appears, read: Doxorubicin Q14D (SoC reference).

As usually defined, the IC50 is the point on the concentration scale where inhibition reaches its midpoint. For orientation: MTD means the largest dose that counted as tolerated. Higher therefore signals a wide tolerated range. As to `COc1c(OCCCN2CCOCC2)ccc2c1N=C(NC(=O)c1cnc(N)nc1)N1CCN=C21` [Compound A, 2-amino-N-[7-methoxy-8-(3-morpholin-4-ylpropoxy)-2,3-dihydroimidazo[1,2-c]quinazolin-5-yl]pyrimidine-5-carboxamide], the half-maximal inhibitory concentration (IC50) in the data set with RUCA is 13.7 nM; in the data set with ECC-1 it was 161 nM; in the data set with Ishikawa, 373 nM; with HEC-50, 64.6 nM; in the data set on RL95-2, 144 nM; with KLE, below 6.86 nM. The concentration for half-maximal inhibition (IC50) in the data set on HEC-1B, with AN3CA, in the data set on HEC-1A, in the data set on MFE 280 and with MFE 296 was below 6.86 nM each time. Moreover, the “concentration up to which no apoptosis induction was shown (cleaved caspase 3/7)” value in the data set with MFE-280 cells and with MFE-296 cells was above 5 µM in each case. The “CR (complete response)” value in data set [1] (Compound A 7 mg/kg i.v. Q2D) and in [1] (setting [4]) was 0% each time. In addition, the entries for the “PD (progressive disease)” value in data set [1] (Compound A 7 mg/kg i.v. Q2D) and in data set [1] (setting [4]) were 25% and 0%, respectively. Moreover, the “PR (partial response)” value in [1] (Compound A 7 mg/kg i.v. Q2D) worked out at 25%; in [1] (setting [4]), 37.5%. For the same compound, the “RR (response rate)” value turned out to be 25% in data set [1] (Compound A 7 mg/kg i.v. Q2D) and 37.5% in [1] (setting [4]). Moreover, the entries for the “T/C (tumor area)” value in [1] (Compound A 7 mg/kg i.v. Q2D) and in data set [1] (setting [4]) were 0.40 and 0.34, respectively. The “T/C (tumor weight)” value is given as 0.24 in data set [1] (Compound A 7 mg/kg i.v. Q2D) and 0.16 in [1] (setting [4]). Also, the “reduction of tumor weight” value in [1] (compound A 7 mg/kg) is reported as around 76%; in [1] (compound A (14)10 mg/kg) it was “approximately 84%”. In [2], the “body weight loss compared to starting body weight” value is recorded as “No body weight loss”. In addition, the MTD in data set [3] worked out at 0.8 mg/kg. Moreover, in the data set on endometrial cancer (4 of 5 endometrial cancer patients), the “clinical benefit (patients with CR, PR or SD)” value is recorded as 80%. Further, the “Best % change in tumor size from screening” value with endometrial cancer (setting [5]) is on record as −24.3%; in the data set with endometrial cancer (Pt 2008, 0.8 mg/kg (40 mg), stage IV), 2.4%; in the data set on endometrial cancer (setting [6]), −8.7%; in the data set on endometrial cancer (setting [7]), −9.1%; with endometrial cancer (Pt 3106, 0.8 mg/kg (46 mg, then 37 mg), stage IV), −61.8%. For the same compound, the Best response entry is on record as “SD 8 cycles” in the data set on endometrial cancer (setting [5]), “SD 2 cycles” in the data set on endometrial cancer (setting [6]) and “SD 8 cycles” in the data set on endometrial cancer (setting [7]). Further, the tumor shrinkage in the data set on endometrial cancer (endometrial cancer patient with extended SD and KRAS tumor mutation) is on record as 24.3%.
For `COc1cccc2c1C(=O)c1c(O)c3c(c(O)c1C2=O)C[C@@](O)(C(=O)CO)C[C@@H]3O[C@H]1C[C@H](N)[C@H](O)[C@H](C)O1` [Doxorubicin, reference compound], in [1] (setting [8]), the “CR (complete response)” value was 0%, the “PD (progressive disease)” value was found to be 37.5%, the “PR (partial response)” value was found to be 12.5% and the “RR (response rate)” value stood at 12.5%. Also, in [1] (setting [8]), the “T/C (tumor area)” value was determined as 0.51 and the “T/C (tumor weight)” value was 0.39. Besides, the “tumor growth inhibition assessed by tumor weight” value in data set [1] (SoC Doxorubicin) turned out to be 61%.
On to `COCc1c(-c2cc3cc(C)cc(OC)c3s2)c2c(N)ncnn2c1CN1CCNC(=O)C1` [Compound B, 4-{[4-Amino-6-(methoxymethyl)-5-(7-methoxy-5-methyl-1-benzothiophen-2-yl)pyrrolo[2,1-f][1,2,4]triazin-7-yl]methyl}piperazin-2-one], for which the “concentration up to which no apoptosis induction was shown (cleaved caspase 3/7)” value with MFE-280 cells is above 10 µM. Besides, in the data set with MFE-296 cells, the “concentration up to which no apoptosis induction was shown (cleaved caspase 3/7)” value is above 10 µM. In [1] (Compound B 75 mg/kg p.o. QD), the “CR (complete response)” value was found to be 12.5%, the “PD (progressive disease)” value was 12.5%, the “PR (partial response)” value stood at 0% and the “RR (response rate)” value is given as 12.5%. Further, in data set [1] (Compound B 75 mg/kg p.o. QD), the “T/C (tumor area)” value was 0.39 and the “T/C (tumor weight)” value was 0.22. Moreover, the tumor growth inhibition in data set [1] (compound B, at the end of the study) was 78%.
